By IC50 is commonly meant the concentration that gives 50% inhibition.

Data on 21 compounds can be found in US20240317723A1, “SUBSTITUTED AMINO AZA-HETEROARYL COMPOUNDS AS INHIBITORS OF THE HAEMATOPOIETIC PROGENITOR KINASE 1 (HPK1)” (priority 2021, published 2024).

One assay addresses Lck (h) (Homo sapiens, UniProt P06239). Kind of assay: Lck Human STE Kinase Enzymatic Radiometric Assay. It is filed as biochemical. To be noted: for IC50: radiometric, [gamma-33P]-ATP, Cdc2 peptide substrate, read-out: Lck IC50, nM Range*; for Selectivity: selectivity for inhibition of HPK1 vs Lck. Here is the method: (b) Lck Human STE Kinase Enzymatic Radiometric Assay
Lck (h) is incubated with 50 mM Tris pH 7.5, 0.1 mM EGTA, 0.1 mM Na3VO4, 250 uM KVEKIGEGTYGVVYK (Cdc2 peptide), 10 mM MgAcetate and [gamma-33P]-ATP (specific activity and concentration as required). The reaction is initiated by the addition of the Mg/ATP mix. After incubation for 40 minutes at room temperature, the reaction is stopped by the addition of phosphoric acid to a concentration of 0.5%. 10 uL of the reaction is then spotted onto a P30 filtermat and washed four times for 4 minutes in 0.425% phosphoric acid and once in methanol prior to drying and scintillation counting. For more details on the kinase assay procedures see: Gao, Y. et. al.; Biochem J., 451 (2): 313-328, 2013.
In some embodiments the presence of substituents on monocyclic Cy^2 rings or when Cy^2 is a bicyclic ring (unsubstituted or substituted) provides compounds with improved selectivity for inhibition of HPK1 vs Lck (see, for example, Table 3 and Table 4).

The target in assay [1] is T1, Recombinant (1-346) HPK1 (h) (Homo sapiens, UniProt Q92918).
T1 construct: Recombinant (1-346) HPK1 (h) is incubated with 8 mM MOPS pH 7.0
T1 sequence (Q92918 1-346): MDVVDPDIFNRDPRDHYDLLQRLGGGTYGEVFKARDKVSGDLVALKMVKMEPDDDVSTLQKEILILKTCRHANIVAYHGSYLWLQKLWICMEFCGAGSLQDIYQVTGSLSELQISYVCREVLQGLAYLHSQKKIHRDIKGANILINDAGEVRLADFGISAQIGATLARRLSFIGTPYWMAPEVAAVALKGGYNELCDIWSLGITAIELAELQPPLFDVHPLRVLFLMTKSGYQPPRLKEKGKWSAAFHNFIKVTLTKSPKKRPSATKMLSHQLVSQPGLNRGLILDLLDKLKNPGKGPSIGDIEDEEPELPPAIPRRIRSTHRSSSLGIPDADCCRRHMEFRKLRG
Kind of assay: HPK1 Human STE Kinase Enzymatic Radiometric Assay. The assay is classed as biochemical. To be noted: [gamma-33P]-ATP, myelin basic protein substrate, read-out: HPK1 IC50 nM Range*. Here is the method:
(a) HPK1 Human STE Kinase Enzymatic Radiometric Assay
A stock solution of 10 mM of test compound is prepared in DMSO. The compound plate was prepared by 3-fold and 9-point serial dilutions. Recombinant (1-346) HPK1 (h) is incubated with 8 mM MOPS pH 7.0, 0.2 mM EDTA, 0.33 mg/mL myelin basic protein, 10 mM MgAcetate and [gamma-33P]-ATP (specific activity and concentration as required). The reaction is initiated by the addition of the Mg/ATP mix. After incubation for 40 minutes at RT, the reaction is stopped by the addition of phosphoric acid to a concentration of 0.5%. 10 uL of the reaction is then spotted onto a P30 filtermat and washed four times for 4 minutes in 0.425% phosphoric acid and once in methanol prior to drying and scintillation counting. For more details of kinase assay protocols, see: Gao, Y. et. al.; Biochem J. 451 (2): 313-328, 2013.

Lck (h), sequence (P06239 whole entry): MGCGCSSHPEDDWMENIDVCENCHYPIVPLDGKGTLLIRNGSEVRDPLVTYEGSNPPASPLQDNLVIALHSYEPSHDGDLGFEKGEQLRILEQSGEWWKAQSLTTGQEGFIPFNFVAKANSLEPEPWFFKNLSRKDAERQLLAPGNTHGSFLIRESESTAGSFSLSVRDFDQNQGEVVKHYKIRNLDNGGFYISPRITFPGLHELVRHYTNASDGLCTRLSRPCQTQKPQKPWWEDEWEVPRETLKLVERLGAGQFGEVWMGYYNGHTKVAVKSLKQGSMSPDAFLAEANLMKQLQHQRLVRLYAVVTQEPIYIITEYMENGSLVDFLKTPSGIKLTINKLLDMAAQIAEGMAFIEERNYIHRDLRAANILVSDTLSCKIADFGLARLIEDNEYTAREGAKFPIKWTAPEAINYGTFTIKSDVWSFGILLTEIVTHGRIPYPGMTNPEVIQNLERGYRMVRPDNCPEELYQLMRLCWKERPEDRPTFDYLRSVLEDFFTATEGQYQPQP

In the case of `CN([C@H]1CCN(c2ccc(-c3cnc(N)c(-c4ccc5c(c4)CCNC5=O)n3)cc2)C1)S(C)(=O)=O` [Example I-10, (S)-N-(1-(4-(5-amino-6-(1-oxo-1,2,3,4-tetrahydroisoquinolin-6-yl)pyrazin-2-yl)phenyl)pyrrolidin-3-yl)-N-methylmethanesulfonamide], the IC50 lay within 11 to 20 nM at Lck (h) and 0.1 to 5 nM in assay [1].

Consider `CN1C[C@H]2C[C@@]2(c2ccc(-c3cnc(N)c(-c4cc5c(cc4F)C(=O)NCC5)n3)cc2)C1` [Example I-45, 6-(3-amino-6-(4-((1R,5S)-3-methyl-3-azabicyclo[3.1.0]hexan-1-yl)phenyl)pyrazin-2-yl)-7-fluoro-3,4-dihydroisoquinolin-1(2H)-one], for which the IC50 at Lck (h) is 11 to 20 nM; in assay [1], 0.1 to 5 nM.

`CC(C)[C@H]1CN(c2ccc(-c3cnc(N)c(-c4ccc5c(c4)CCNC5=O)n3)c(F)c2)CCN1C` [Example I-41, (S)-6-(3-amino-6-(2-fluoro-4-(3-isopropyl-4-methylpiperazin-1-yl)phenyl)pyrazin-2-yl)-3,4-dihydroisoquinolin-1(2H)-one]: the IC50 lay in the range of 21 to 200 nM at Lck (h) and 0.1 to 5 nM in assay [1].

Take `CC(C)[C@H]1CN(c2ccc(-c3cnc(N)c(-c4ccc5c(c4)CCNC5=O)n3)c(F)c2F)CCO1` [Example I-16, (S)-6-(3-amino-6-(2,3-difluoro-4-(2-isopropylmorpholino)phenyl)pyrazin-2-yl)-3,4-dihydroisoquinolin-1(2H)-one]: the figures for the IC50 (at Lck (h); in assay [1]) were 21 to 200 nM and 0.1 to 5 nM, respectively.

As to `CC(C)[C@@H]1CN(c2ccc(-c3cnc(N)c(-c4ccc5c(c4)CCNC5=O)n3)cc2)CCN1C` [Example I-38, (R)-6-(3-amino-6-(4-(3-isopropyl-4-methylpiperazin-1-yl)phenyl)pyrazin-2-yl)-3,4-dihydroisoquinolin-1(2H)-one], the IC50 was in the range of 6 to 10 nM at Lck (h) and 0.1 to 5 nM in assay [1].

On to `C[C@@H]1COCCN1c1ccc(-c2cnc(N)c(-c3ccc4c(c3)CCNC4=O)n2)cc1` [Example I-11, (R)-6-(3-amino-6-(4-(3-methylmorpholino)phenyl)pyrazin-2-yl)-3,4-dihydroisoquinolin-1(2H)-one], for which, on Lck (h), the IC50 fell in the range of 11 to 20 nM and the Selectivity is reported as 170. Besides, in assay [1], the IC50 was in the range of 0.1 to 5 nM.

Consider `CC(C)N1C[C@H]2C[C@@]2(c2ccc(-c3cnc(N)c(-c4cc5c(cc4F)C(=O)NCC5)n3)cc2)C1` [Example I-46, 6-(3-amino-6-(4-((1R,5S)-3-isopropyl-3-azabicyclo[3.1.0]hexan-1-yl)phenyl)pyrazin-2-yl)-7-fluoro-3,4-dihydroisoquinolin-1(2H)-one], for which the figures for the IC50 (at Lck (h); in assay [1]) were 11 to 20 nM and 0.1 to 5 nM, respectively.

Take `CN1CCN(c2ccc(-c3cnc(N)c(-c4cc5c(cc4F)C(=O)NCC5)n3)cc2)CC1` [Example I-12, 6-(3-amino-6-(4-(4-methylpiperazin-1-yl)phenyl)pyrazin-2-yl)-7-fluoro-3,4-dihydroisoquinolin-1(2H)-one]: the IC50 at Lck (h) fell in the range of 11 to 20 nM; in assay [1], 0.1 to 5 nM.

For the compound `CC(C)[C@H]1CN(c2ccc(-c3cnc(N)c(-c4ccc5c(c4)CCNC5=O)n3)cc2)CCO1` [Example I-8, (S)-6-(3-amino-6-(4-(2-isopropylmorpholino)phenyl)pyrazin-2-yl)-3,4-dihydroisoquinolin-1(2H)-one], the IC50 was in the range of 11 to 20 nM at Lck (h) and 0.1 to 5 nM in assay [1]. The compound further returned a Selectivity at Lck (h) of 170.

In the case of `C[C@@H]1CCCN1c1ccc(-c2cnc(N)c(-c3ccc4c(c3)CCNC4=O)n2)cc1` [Example I-42, (R)-6-(3-amino-6-(4-(2-methylpyrrolidin-1-yl)phenyl)pyrazin-2-yl)-3,4-dihydroisoquinolin-1(2H)-one], the values for the IC50 (at Lck (h); in assay [1]) were 11 to 20 nM and 0.1 to 5 nM, respectively.

In the case of `CC(C)[C@@H]1CN(c2ccc(-c3cnc(N)c(-c4cc5c(cc4F)C(=O)NCC5)n3)c(F)c2F)CCO1` [Example I-31, (R)-6-(3-amino-6-(2,3-difluoro-4-(2-isopropylmorpholino)phenyl)pyrazin-2-yl)-7-fluoro-3,4-dihydroisoquinolin-1(2H)-one], the values for the IC50 (at Lck (h); in assay [1]) were 21 to 200 nM and 0.1 to 5 nM, respectively.

With `CC(C)[C@@H]1CN(c2ccc(-c3cnc(N)c(-c4cc5c(cc4F)C(=O)NCC5)n3)c(F)c2)CCO1` [Example I-29, (R)-6-(3-amino-6-(2-fluoro-4-(2-isopropylmorpholino)phenyl)pyrazin-2-yl)-7-fluoro-3,4-dihydroisoquinolin-1(2H)-one], the IC50 is 21 to 200 nM at Lck (h) and 0.1 to 5 nM in assay [1].

`C[C@H]1COCCN1c1ccc(-c2cnc(N)c(-c3ccc4c(c3)CCNC4=O)n2)c(F)c1` [Example I-23, (S)-6-(3-amino-6-(2-fluoro-4-(3-methylmorpholino)phenyl)pyrazin-2-yl)-3,4-dihydroisoquinolin-1(2H)-one]: the IC50 at Lck (h) fell in the range of 11 to 20 nM; in assay [1], 0.1 to 5 nM.

For `CC(C)C1CCCN(c2ccc(-c3cnc(N)c(-c4ccc5c(c4)CCNC5=O)n3)c(F)c2)C1` (stereo not drawn) [Example I-25, 6-(3-amino-6-(2-fluoro-4-(3-isopropylpiperidin-1-yl)phenyl)pyrazin-2-yl)-3,4-dihydroisoquinolin-1(2H)-one], the IC50 on Lck (h) is 21 to 200 nM; in assay [1] it was 6 to 10 nM.

Turning to `CN1C[C@@H]2C[C@]2(c2ccc(-c3cnc(N)c(-c4cc5c(cc4F)C(=O)NCC5)n3)cc2)C1` [Example I-47, 6-(3-amino-6-(4-((1S,5R)-3-methyl-3-azabicyclo[3.1.0]hexan-1-yl)phenyl)pyrazin-2-yl)-7-fluoro-3,4-dihydroisoquinolin-1(2H)-one], the IC50 on Lck (h) lay within 11 to 20 nM; in assay [1] it was 0.1 to 5 nM.

Consider `Nc1ncc(-c2ccc([C@@]34C[C@@H]3CN(CCF)C4)cc2)nc1-c1ccc2c(c1)CCNC2=O` [Example I-37, 6-(3-amino-6-(4-((1R,5S)-3-(2-fluoroethyl)-3-azabicyclo[3.1.0]hexan-1-yl)phenyl)pyrazin-2-yl)-3,4-dihydroisoquinolin-1(2H)-one], for which the IC50 fell in the range of 6 to 10 nM at Lck (h) and 0.1 to 5 nM in assay [1].

Turning to `CC(C)[C@H]1CN(c2ccc(-c3cnc(N)c(-c4cc5c(cc4F)C(=O)NCC5)n3)cc2)CCO1` [Example I-28, (S)-6-(3-amino-6-(4-(2-isopropylmorpholino)phenyl)pyrazin-2-yl)-7-fluoro-3,4-dihydroisoquinolin-1(2H)-one], the IC50 at Lck (h) was 11 to 20 nM; in assay [1], 0.1 to 5 nM.

Regarding `CC(C)[C@H]1CN(c2ccc(-c3cnc(N)c(-c4ccc5c(c4)CCNC5=O)n3)c(F)c2)CCO1` [Example I-14, (S)-6-(3-amino-6-(2-fluoro-4-(2-isopropylmorpholino)phenyl)pyrazin-2-yl)-3,4-dihydroisoquinolin-1(2H)-one], on Lck (h), the IC50 was in the range of 21 to 200 nM and the Selectivity was 1066. Moreover, the IC50 in assay [1] is 0.1 to 5 nM.

Consider `Nc1ncc(-c2ccc(N3C[C@@H]4C[C@H]3CN4CC(F)(F)F)cc2)nc1-c1ccc2c(c1)CCNC2=O` [Example I-34, 6-(3-amino-6-(4-((1S,4S)-5-(2,2,2-trifluoroethyl)-2,5-diazabicyclo[2.2.1]heptan-2-yl)phenyl)pyrazin-2-yl)-3,4-dihydroisoquinolin-1(2H)-1-one], for which the IC50 was in the range of 11 to 20 nM on Lck (h) and 0.1 to 5 nM in assay [1].

On to `CC(C)[C@@H]1CN(c2ccc(-c3cnc(N)c(-c4ccc5c(c4)CCNC5=O)n3)cc2)CCO1` [Example I-7, (R)-6-(3-amino-6-(4-(2-isopropylmorpholino)phenyl)pyrazin-2-yl)-3,4-dihydroisoquinolin-1(2H)-one], for which the IC50 was in the range of 11 to 20 nM at Lck (h) and 0.1 to 5 nM in assay [1].

Turning to `CC(=O)N1CCN(c2ccc(-c3cnc(N)c(-c4ccc5c(c4)CCNC5=O)n3)cc2)CC1` [Example I-19, 6-(6-(4-(4-acetylpiperazin-1-yl)phenyl)-3-aminopyrazin-2-yl)-3,4-dihydroisoquinolin-1(2H)-one], the IC50 at Lck (h) is 11 to 20 nM; in assay [1] it was 0.1 to 5 nM.
